Measured values: publication PMC8111401 (Frontiers in Pharmacology, 2021)
Like-named read-outs stand apart in the source and are kept apart here. Blank lines part the entries; values can stand above or below the molecule they belong to.

What was measured:
[1] = tested on: radiation pneumonitis; set-up: method as in Gao et al., 2013; conditions: delivered as late as 35 days after radiation; ref Gao et al., 2013; cited from earlier work
[2] = Lisinopril excreted in 24 h urine, measured by LC-MS/MS; assay type: in vivo, WAG/RijCmcr rats
Procedure: Urine was collected in a Nalgene rat metabolic cage. A rat was placed in the metabolic cage with access to food and water for 24 h. After 24 h urine volume was recorded, and an aliquot was frozen and stored at −80°C for LC-MS analyses.
Plasma was measured 1–4 times in each animal, at 0, 0.5, 1, 1.5, 2, 2.5, 3, 4, 5, 6, 8, 24 or 48 h after oral gavage, and 5 min, 1.5 and 24 h after intravenous injection.
Aliquots (0.1 ml) of rat plasma or urine were extracted with ∼3 volumes of cold acidified methanol spiked with enalaprilat as an internal standard (0.3 ml of methanol, 20 µL of 0.1 M HCl and 3 µL of 0.1 mM enalaprilat), mixed well and allowed to stand for 5 min before centrifugation at 14,000 rpm for 5 min at 4°C. The supernatant was passed through a Phree phospholipid removal plate (Phenomenex) and the eluate dried completely under a flux of air and reconstituted with 120 µL of LC-MS mobile phase (5% acetonitrile, 95% water, 0.1% formic acid), spiked with 1 µM of lisinopril-d5 used as a second internal standard. […] Samples were injected into C18 reversed phase column (Waters Cortecs UPLC C18 2.1 mm × 50 mm, 1.6 µm) thermostated at 40°C and equilibrated with 0.1% formic acid in water:acetonitrile (95:5). Compounds were eluted by increasing the concentration of acetonitrile in the mobile phase from 5 to 40% over 2.5 min at the flow rate of 0.5 ml/min.

[3] = control (nonirradiated) rats; base parameter estimate, two-compartment model
Text: (§1) WAG/RijCmcr female rats were irradiated without the use of anesthetics at 11–12 weeks of age weighing ∼155 g. All irradiations were done between 8–11 am. For leg-out PBI, non-anesthetized rats were immobilized in a plastic jig and irradiated using a XRAD-320 orthovoltage x-ray system (Precision X-Ray, North Branford, Connecticut). […] During the irradiation, each rat was confined in a chamber which allows irradiation of two rats simultaneously. One hind limb of each rat was carefully externalized from the chamber and shielded with a 0.25-inch lead block. The dose to this leg was 2 Gy. The dual-chambered jig was placed on a plane perpendicular to the beam direction, with distance from source to the midline of rats set at 61 cm. […] The irradiation field at midline was large enough to cover both chambers with adequate (at least 2 cm) margins. Supportive care was provided to rats receiving 13 Gy. Supportive care consisted of delivery of the antibiotic Enrofloxacin (10 mg/kg/day) from days 1–14 in the drinking water, and hydration by daily subcutaneous injection of saline (40 ml/kg/day) from days 3–7, post-irradiation.
(§2) Aliquots (0.1 ml) of rat plasma or urine were extracted with ∼3 volumes of cold acidified methanol spiked with enalaprilat as an internal standard (0.3 ml of methanol, 20 µL of 0.1 M HCl and 3 µL of 0.1 mM enalaprilat), mixed well and allowed to stand for 5 min before centrifugation at 14,000 rpm for 5 min at 4°C. […] Samples were injected into C18 reversed phase column (Waters Cortecs UPLC C18 2.1 mm × 50 mm, 1.6 µm) thermostated at 40°C and equilibrated with 0.1% formic acid in water:acetonitrile (95:5).
(§3) Pharmacokinetic (PK) modeling was performed on the data to measure distribution of the drug in different tissues (compartments). The two compartments fitted with observed data were the central compartment (plasma) and the peripheral compartment (internal tissues such as lungs, liver, kidneys, etc.). Administration by gavage was modeled using the gut as a depot to include bioavailability (F) and absorption (k a) from the gut (Figure 1). […] Clearance out of the system was modeled by Cl, the renal clearance rate via urine (Figure 1). The model was fitted using the open-source R package Nonlinear Mixed-Effects Model Development and Simulation (nlmixr) along with related R packages.
(§4) An additive error with compartment-specific variance was assumed for the plasma, peripheral, and urine compartments. Multiple measurements from the same animal were linked via a log-normally distributed multiplicative random effect on the compartment volumes V 2 and V 3.
(§5) The observed measurements are the concentration in plasma, Cplasma and the (cumulative) amount in the urine, Yurine .
(§6) The model was fitted to the plasma and urine data, the accumulation in the peripheral compartment was inferred from the model.

[4] = set-up: method as in Beermann 1988; conditions: humans; ref Beermann 1988; cited from earlier work
[5] = in vivo; conditions: female, WAG/RijCmcr, rat, plasma, urine
Text: as §1, §2, §3, §4, §5, §6

[6] = in vivo; conditions: female, WAG/RijCmcr, rat, plasma, po

SMILES: CCOC(=O)[C@H](CCc1ccccc1)N[C@@H](C)C(=O)N1CCC[C@H]1C(=O)O [enalapril]
Efficacy to mitigate radiation pneumonitis [1]: had efficacy to mitigate radiation pneumonitis

Measured lisinopril excreted in urine per 300 µg administered, geometric mean ([2]; IV, no radiation): 0.46 µmol | Measured lisinopril excreted in urine per 300 µg administered, geometric mean ([2]; IV, radiation): 0.37 µmol | Measured lisinopril excreted in urine per 300 µg administered, geometric mean ([2]; gavage, no radiation): 0.072 µmol | Measured lisinopril excreted in urine per 300 µg administered, geometric mean ([2]; gavage, radiation): 0.11 µmol | Central volume [3]: 0.008 L | Peripheral volume (lung) [3]: 0.513 L | Inter-individual variation (irradiated rats, 90 min after IV injection): 1.8 fold | Inter-individual variation (irradiated rats, 90 min after oral gavage (data not shown)): 2.7 fold | Inter-individual variation (non-irradiated rats, 90 min after oral gavage (data not shown)): 1.6 fold | Inter-individual variation (nonirradiated rats injected with lisinopril (result not shown)): 3-4 fold | CL renal [5]: 0.15 mL/min | half-life ([5]; Model-based circulating half-life, irradiated rats): 2.5 h | half-life ([5]; Model-based circulating half-life, non-irradiated rats): 2.8 h | half-life ([5]; Model-based estimate of terminal half-life, irradiated rats): 83 h | half-life ([5]; Model-based estimate of terminal half-life, nonirradiated rats): 65 h | bioavailability ([5]; oral): 25.4% | bioavailability ([5]; po): 19.2% | Tmax [6]: 2 to 3 h
SMILES: NCCCC[C@H](N[C@@H](CCc1ccccc1)C(=O)O)C(=O)N1CCC[C@H]1C(=O)O [lisinopril]
Half-life of prolonged terminal phase [4]: 46.7 h | Time of peak serum levels [4]: 6 to 8 h
